Measurements published in patent US20170002011A1, “BENZENE SULFONAMIDES AS CCR9 INHIBITORS” (NORGINE B.V., priority 2013, published 2017).

Legend:
CCR9 [1] = target: T1, CCR9 (Homo sapiens, UniProt P51686); test: FLIPR calcium flux assay using MOLT4 cells (TECK stimulation); assay type: cell-based; parameters: endogenous in cells; host or cells: MOLT4 (human T-cell line); conditions: MOLT4 cells (a human T-cell line); Ki determined from IC50 of TECK-induced intracellular calcium increase
T1 sequence (P51686 1-369): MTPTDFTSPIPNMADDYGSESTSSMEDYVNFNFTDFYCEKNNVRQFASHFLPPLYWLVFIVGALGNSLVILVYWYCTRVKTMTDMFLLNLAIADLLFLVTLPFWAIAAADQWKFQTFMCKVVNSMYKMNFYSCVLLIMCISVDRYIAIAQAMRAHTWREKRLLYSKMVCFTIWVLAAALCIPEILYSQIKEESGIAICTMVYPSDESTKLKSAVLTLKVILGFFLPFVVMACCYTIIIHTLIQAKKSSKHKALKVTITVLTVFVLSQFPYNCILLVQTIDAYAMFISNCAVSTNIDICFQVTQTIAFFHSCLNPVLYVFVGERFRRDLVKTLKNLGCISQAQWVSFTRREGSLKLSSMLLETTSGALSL
Protocol: Biological Activity: FLIPR Assay Using MOLT4 Cells
A calcium flux assay was used to determine the ability of the compounds to interfere with the binding between CCR9 and its chemokine ligand (TECK) in MOLT4 cells (a human T-cell line). MOLT4 cells were seeded (100,000 cells/well) in coming cell culture plates (Cat #3603) in assay buffer (lx HBSS, 20 mM HEPES) containing 2.5 mM Probenecid. The plate was centrifuged at 1200 rpm for 3 minutes and incubated at 37° C./5% CO2 for 2 hours. A 0.3× Fluo-4 NW calcium dye was prepared in assay buffer containing 5 mM Probenecid and stored in the dark. Each well was loaded with 25 μL of 0.3× Fluo-4 NW calcium dye and incubated at 37 C/5% CO2 for 60 minutes and then at room temperature for 30 minutes. A half-log serially diluted concentration response curve was prepared at a 4× concentration for each (10 μM-0.1 nM final assay concentration) and 25 μL of the compound then transferred to the cells (100 μL final volume) for 60 minutes prior to stimulation (30 minutes at 37° C./5% CO2 and 30 minutes at room temperature). TECK was diluted to 5× its EC50 in assay buffer (containing 0.1% [w/v] bovine serum albumin [BSA]) and 25 μL dispensed through the FLIPR instrument to stimulate the cells (125 μL final volume). The increased in intracellular calcium levels was measured with the FLIPR instrument. The potency of the compound as CCR9 antagonist was calculated as an IC50 using GraphPad Prism software (variable slope four parameter). The Ki of the compound was determined from the IC50 values using the following equation.
(§1) Ki calculation: IC50/1+(Agonist (TECK) conc. used in assay/EC50 of agonist (TECK) generated on day of experiment)

CCR9 [2] = target: T1, CCR9; test: FLIPR calcium flux assay using hCCR9 over expressed cells (TECK stimulation); assay type: cell-based; parameters: expressed in transfected cells; host or cells: Chem-1 cells overexpressing hCCR9; conditions: Chem1-hCCR9 overexpressing cells; Ki determined from IC50 of TECK-induced intracellular calcium increase
Protocol: Biological Activity: FLIPR Assay Using hCCR9 Over Expressed Cells
A calcium flux assay was used to determine the ability of the compounds to interfere with the binding between CCR9 and its chemokine ligand (TECK) in Cheml-hCCR9 overexpressing cells. hCCR9 overexpressing cells were seeded (25,000 cells/well) into black Poly-D-Lysine coated clear bottom 96-well plates (BD Biosciences, Cat #356640) and incubated overnight at 37° C./5% CO2 in a humidified incubator. Media was aspirated and cells washed twice with 100 μL assay buffer (1×HBSS, 20 mM HEPES) containing 2.5 mM Probenecid. A 0.3× Fluo-4 NW calcium dye was prepared in assay buffer containing 5 mM Probenecid and stored in the dark. Each well was loaded with 100 μL of 0.3× Fluo-4 NW calcium dye and incubated at 37° C./5% CO2 for 60 minutes and then at room temperature for 30 minutes. A half-log serially diluted concentration response curve was prepared at a 3× final assay concentration for each compound (10 μM−0.1 nM final assay concentration) and 50 μL of the compound then transferred to the cells (150 μL final volume) for 60 minutes prior to stimulation (30 minutes at 37° C./5% CO2 and 30 minutes at room temperature). TECK was diluted to 4× its ECso in assay buffer (containing 0.1% [w/v] bovine serum albumin[BSA]) and 50 μL dispensed through the fluorometric imaging plate reader (FLIPR) instrument to stimulate the cells (200 μL final volume). The increase in intracellular calcium levels was measured with the FLIPR instrument. The potency of the compound as a CCR9 antagonist was calculated as an IC50 using GraphPad Prism software (variable slope four parameter). The Ki of the compound was determined from the IC50 values using the following equation.
as §1

Structure (SMILES) | Ki (CCR9 [1]) [nM] | Ki (CCR9 [2]) [nM]
Cc1cc2c(Cl)ccc(NS(=O)(=O)c3ccc(C(C)(C)C)cc3)n2n1 [Compound 94, 4-(tert-butyl)-N-(4-chloro-2-methylpyrazolo[1,5-a]pyridin-7-yl)benzenesulfonamide] | 162 | 181
CC(C)n1cc(-c2cc3c(Cl)ccc(NS(=O)(=O)c4ccc(C(C)(C)C)cc4)n3n2)cn1 [Compound 186] | 31 | 67
Cn1ccc(-c2cc3c(Cl)ccc(NS(=O)(=O)c4ccc(C(C)(C)C)cc4)n3n2)n1 [Compound 183] | 95 | 94
Cc1cc2c(Cl)ccc(NS(=O)(=O)c3ccc(C(C)(C)C#N)cc3)n2n1 [Compound 98] | 109 | 512
